Reference: patent US20230203485A1, “METHODS FOR MODULATING MHC-I EXPRESSION AND IMMUNOTHERAPY USES THEREOF” (Dana-Farber Cancer Institute, Inc., priority 2020, published 2023)

System: class I antigen presentation gene expression in MCC cell lines
Test: RNA-seq / DESeq2 differential expression of MCC cell lines at baseline and after IFN-γ stimulation
Assay type: cell-based, human
Conditions: 11 MCC cell lines, baseline vs IFNγ, negative LFC = upregulation in IFNγ-treated
Protocol: FIG. 2A comprises RNA-seq heatmaps of class I antigen presentation gene expression in MCC lines and controls.
FIG. 2B is a volcano plot of differentially expressed genes (genes below FDR cutoff 0.01 are shown in yellow) between baseline and IFN-γ-treated MCC cell lines. Differential expression analysis was performed using DESeq2, and negative LFC indicates increased expression in +IFN-γ samples. IFN genes are highlighted in red.
RNA samples were first assessed for quality using the Agilent Bioanalyzer (DV200 metric). One hundred ng of RNA were used as the input for first strand cDNA synthesis using Superscript III reverse transcriptase and Illumina's TruSeq RNA Access Sample Prep Kit. Synthesis of the second strand of cDNA was followed by indexed adapter ligation with UMI (unique molecular index) adaptors. Subsequent PCR amplification enriched for adapted fragments. Amplified libraries were quantified, normalized, pooled, and hybridized with exome targeting oligos. Following hybridization, bead clean-up, elution and PCR was performed to prepare library pools for sequencing on Illumina flowcell lanes. Transcriptomes were sequenced to a coverage of at least 50 million reads in pairs.
Raw fastq files for fibroblast and keratinocyte control lines were downloaded from SRA using R Bioconductor package SRAdb (Mayakonda et al. (2018) supra; Zhu et al. (2013) BMC Bioinformatics 14 (1): 1-4) using accession codes SRP126422 (4 replicates from control samples ‘NN’) and SRP131347 (6 replicates with condition: control and genotype: control). These fastq files, along with those for the mkl1 and waga cell lines, were aligned using STAR version 2.7.3a (Dobin et al. (2013) Bioinformatics 29 (1): 15-21), using index genome reference file downloaded from ftp.ebi.ac.uk/pub/databases/gencode/Gencode_human/release_19/GRCh37.p13.genome.fa.gz, transcript annotation file downloaded from data.broadinstitute.org/snowman/hg19/star/gencode.v19.annotation.gtf, and with the following options: --twopassMode Basic, --outSAMstrandField intronMotif, --alignIntronMax 1000000, --alignMatesGapMax 1000000, --sjdbScore 2, --outSAMtype BAM Unsorted, --outSAMattributes NH HI NM MD AS XS, --outFilterType BySJout, --outSAMunmapped Within, --genomeLoad NoSharedMemory, --outFilterScoreMinOverLread 0, --outFilterMatchNminOverLread 0, --outFilterMismatchNmax 999, and outFilterMultimapNmax 20. Duplicates were marked with picard MarkDuplicates version 2.22.0-SNAPSHOT.
RNA-sequencing bam files for MCC tumor and cell line samples were downloaded from the Broad Genomics Firecloud/Terra platform using the Google Cloud Storage command line tool gsutil version 4.5 (github.com/GoogleCloudPlatform/gsutil/).
Gene counts were obtained from bam files using featureCounts version 2.0.0 (doi.org/10.1093/bioinformatics/btt656). Very lowly expressed genes with average count across samples less than 1 were excluded from analysis. Between-sample distance metrics were computed using the Euclidean distance on the vectors of variance-stabilized counts obtained from the vst function in the DESeq2 R Bioconductor package ([…]; Love et al. (2014) Genome Biology 15 (12): 550).
Differential expression analysis was carried out between (1) viral positive and viral negative samples (adjusting for cell line or tumor as a covariate), (2) cell line and tumor samples (adjusting for viral status as a covariate), and (3) IFNγ plus and minus samples (adjusting for viral status as a covariate) using the negative binomial GLM Wald test of DESeq2, where significance was assessed using the p-values adjusted for multiple comparisons under default settings. To account for potential global gene expression differences among sample groups, RUVg (Risso et al. (2014) […] 32 (9): 896-902) was used to estimate latent factors of unwanted variation from the list of housekeeping genes downloaded from www.tau.ac.il/˜elieis/HKG/HK_genes.txt. […]

## IFN-y: type II interferon, recombinant human, used to treat MCC cells
  log2FoldChange PLCH1 (ENSG00000114805.12): −3.192
  log2FoldChange PLSCR1 (ENSG00000188313.8): −1.918
  log2FoldChange PSMA1 (ENSG00000129084.13): −0.53
  log2FoldChange PSMA5 (ENSG00000143106.8): −0.7265
  log2FoldChange PSMB8 (ENSG00000204264.4): −4.624
  log2FoldChange PSMB8-AS1 (ENSG00000204261.4): −4.829
  log2FoldChange PSMB9 (ENSG00000240065.3): −8.037
  log2FoldChange RAB19 (ENSG00000146955.6): −3.348
  log2FoldChange RALB (ENSG00000144118.9): −1.199
  log2FoldChange RARRES3 (ENSG00000133321.6): −9.075
  log2FoldChange RASGRP3 (ENSG00000152689.13): −3.804
  log2FoldChange RCN1 (ENSG00000049449.4): −0.8151
  log2FoldChange RNASET2 (ENSG00000026297.11): −1.4
  log2FoldChange RNF19B (ENSG00000116514.12): −0.8512
  log2FoldChange RPS6KA2-AS1 (ENSG00000231654.1): −4.029
  log2FoldChange RSAD2 (ENSG00000134321.7): −4.639
  log2FoldChange RTP4 (ENSG00000136514.2): −9.766
  log2FoldChange RUFY4 (ENSG00000188282.8): −4.154
  log2FoldChange SAMD9L (ENSG00000177409.7): −9.221
  log2FoldChange SCYL3 (ENSG00000000457.9): −0.6381
  log2FoldChange SERPING1 (ENSG00000149131.11): −10.06
  log2FoldChange SERPINI2 (ENSG00000114204.10): −4.132
  log2FoldChange SLC15A3 (ENSG00000110446.5): −6.048
  log2FoldChange SMCO3 (ENSG00000179256.2): −4.85
  log2FoldChange SP100 (ENSG00000067066.12): −6.178
  log2FoldChange SP110 (ENSG00000135899.12): −5.912
  log2FoldChange SP140 (ENSG00000079263.14): −4.071
  log2FoldChange SP140L (ENSG00000185404.12): −4.749
  log2FoldChange SPATA1 (ENSG00000122432.12): −1.828
  log2FoldChange SRD5A3-AS1 (ENSG00000249700.4): −1.935
  log2FoldChange STAT1 (ENSG00000115415.14): −4.434
  log2FoldChange STAT2 (ENSG00000170581.9): −2.028
  log2FoldChange SYNJ2 (ENSG00000078269.9): −1.182
  log2FoldChange TAP1 (ENSG00000168394.9): −6.326
  log2FoldChange TAP2 (ENSG00000204267.9): −4.845
  log2FoldChange TAPBP (ENSG00000231925.7): −2.025
  log2FoldChange TAPBPL (ENSG00000139192.7): −2.548
  log2FoldChange TCAF2 (ENSG00000170379.15): −3.033
  log2FoldChange TDRD7 (ENSG00000196116.6): −0.8648
  log2FoldChange TLR3 (ENSG00000164342.8): −6.019
  log2FoldChange TMEM108-AS1 (ENSG00000251011.1): −3.649
  log2FoldChange TMEM140 (ENSG00000146859.6): −7.381
  log2FoldChange TNFRSF14 (ENSG00000157873.13): −3.995
  log2FoldChange TNFSF10 (ENSG00000121858.6): −4.43
  log2FoldChange TRIM5 (ENSG00000132256.14): −4.923
  log2FoldChange TRIM21 (ENSG00000132109.8): −5.586
  log2FoldChange TRIM22 (ENSG00000132274.11): −9.394
  log2FoldChange TRIM26 (ENSG00000234127.4): −0.6803
  log2FoldChange TRIM56 (ENSG00000169871.8): −2.411
  log2FoldChange UBA7 (ENSG00000182179.6): −5.004
  log2FoldChange UBE2L6 (ENSG00000156587.11): −4.982
  log2FoldChange UBR2 (ENSG00000024048.6): −0.9247
  log2FoldChange USP33 (ENSG00000077254.10): −0.3836
  log2FoldChange USP42 (ENSG00000106346.7): −0.5211
  log2FoldChange WDR49 (ENSG00000174776.6): −4.564
  log2FoldChange ZC3HAV1 (ENSG00000105939.8): −1.2
ACP5 ENSG00000102575.6
  log2FoldChange: −3.911
B2M ENSG00000166710.13
  log2FoldChange: −3.927
BCO1 ENSG00000135697.5
  log2FoldChange: −3.705
BST2 ENSG00000130303.8
  log2FoldChange: −9.567
C19orf38 ENSG00000214212.4
  log2FoldChange: −2.581
C19orf66 ENSG00000130813.13
  log2FoldChange: −3.602
CAPN3 ENSG00000092529.18
  log2FoldChange: −1.639
CCDC194 ENSG00000269720.1
  log2FoldChange: −5.08
CCL8 ENSG00000108700.4
  log2FoldChange: −4.991
CCL25 ENSG00000131142.9
  log2FoldChange: −5.742
CEACAM1 ENSG00000079385.17
  log2FoldChange: −6.01
CIITA ENSG00000179583.13
  log2FoldChange: −10.08
CX3CL1 ENSG00000006210.6
  log2FoldChange: −2.039
DGLUCY ENSG00000133943.16
  log2FoldChange: −1.417
DHX58 ENSG00000108771.8
  log2FoldChange: −3.063
DLGAP1-AS5 ENSG00000261520.1
  log2FoldChange: −7.006
DOCK9 ENSG00000088387.13
  log2FoldChange: −1.102
DRAM1 ENSG00000136048.9
  log2FoldChange: −2.646
ENSG00000225131.1 (symbol NA)
  log2FoldChange: −1.967
ENSG00000238045.5 (symbol NA)
  log2FoldChange: −1.974
ENSG00000238528.1 (symbol NA)
  log2FoldChange: −1.287
ENSG00000258733.1 (symbol NA)
  log2FoldChange: −3.393
